One assay deals with phospho-STAT3(Tyr705). The experiment in a line: Phospho-STAT3(Tyr705) immunoblotting in ARPE-19 cells. It counts as cell-based, human. On the procedure:
(§1) ARPE-19 (CRL-2302, human retinal pigment epithelial cells, American Type Culture Collection, Manassas, Va.) cells were cultured in 1:1 mixture of Dulbecco's modified Eagle's medium and HAM F-12 nutrient mixture supplemented with 10% fetal bovine serum at 37° C., 5% CO2, and 90% relative humidity. Confluent cells (90% confluence) were used throughout the experiments. Culture materials were obtained from Gibco-BRL (Rockville, Md.). Tannic acid, AG490 and all other reagents were obtained from Sigma Chemical Co. (St. Louis, Mo.).
(§2) The source of UVB radiation was performed using the EL series of UV lamp (UVP Inc., San Gabriel, Calif., USA). One hundred percent energy emission was at wavelength 302 nm with a radiation intensity of 1.04 mW/cm^2 in a lamp and a target distance of 15 cm was measured by a UVX Digital Radiometer (UVP Inc.).
Total cell lysates were resolved by 10% sodium dodecyl sulfate-polyacryl amide gel electrophoresis, transferred to membranes and blocked, and then probed phospho-STAT3(Tyr705) and STAT3 (Cell Signaling Technology, Danvers, Mass.) antibodies. To control for protein loading, all blots were probed with GAPDH (Millipore, Billerica, Mass.) as well. The bands were detected using the enhanced chemiluminescence system (Millipore, Billerica, Mass.).

A further assay deals with CFB mRNA. In words: CFB mRNA expression in ARPE-19 cells by real-time RT-PCR. Type of assay: cell-based, human. To be noted: for UVB-induced CFB mRNA expression: 10 mJ/cm^2 UVB, 24 h, ARPE-19 cells, TA 25 μM, AG490 40 μM in 0.2% DMSO, normalized to GAPDH. On the procedure: as §1, §2
The total RNA was isolated from ARPE-19 cells and cells exposed to UVB radiation (5-15 mJ/cm^2) for 24 hr using TRIzol Reagent (invitrogen). One μg of total RNA was subject to reverse transcriptase RT-PCR by using RT-PCR kit (Applied Biosystems). The primers used for detecting mRNA for IL-6 were 5′-CCTGCAAG ACCATCGACATG-3′ (forward, SEQ ID NO. 1) and 5′-[…]-3′ (reverse, SEQ ID NO. 2); CFB were 5′-[…]-3′ (forward, SEQ ID NO. 3) and 5′-[…]-3 (reverse, SEQ ID NO. 4); STAT3 were 5′-[…]-3′ (forward, SEQ ID NO. 5) and 5′-[…]-3′ (reverse, SEQ ID NO. 6); JAK2 were 5′-GCTCAGTGGCGGCATGAT-3′ (forward, SEQ ID NO. 7) and 5′-[…]-3′ (reverse, SEQ ID NO. 8); GAPDH were 5′-AACAGCGACACCCATCCTC-3′ (forward, SEQ ID NO. 9) and 5′-[…]-3′ (reverse, SEQ ID NO. 10). Real-time PCR was performed in a Gene Amp 7900® Sequence Detection System SDS (Applied Biosystems, Foster City, Calif., USA) using SYBR® Green PCR Master Mix Applied Biosystems. The relative gene expression is the comparative CT method. Each sample was normalized on the basis of its GAPDH content according to the formula 2^−ΔΔCT.
In general terms: Real-time PCR tracks product formation cycle by cycle.

Another assay concerns JAK/STAT signaling. To be noted: Samardzija et al. 2006; cited from earlier work.
In another assay the test system is IL-6. In words: IL-6 protein production in ARPE-19 cell culture supernatants by ELISA. It counts as cell-based, human. The following applies: TA 25 μM, 10 mJ/cm^2 UVB, 24 hours, ARPE-19 cells. Here is the method: as §1, §2
ARPE-19 cells were plated about 200,000 cells in a 3-cm dish and cultured for 18-24 hours. Cells were exposed to UVB radiation for 24 hours, 1 ml aliquots of cell culture supernatants were drawn off and frozen at −80° C. ELISAs were carried out with the OptEIA human IL-6 ELISA kit (BD Pharmingen) according to the manufacturer's instructions. […] Freshly diluted rIL-6 which is useful as a standard control was used to generate a standard curve on each plate analyzed. Plates were read at 450 nm using a spectrophotometric plate reader. […]
(In general: An ELISA detects its analyte on a solid surface through an enzyme-linked reagent.)

Each structure is given as a SMILES string.

Regarding `N#C/C(=C/c1ccc(O)c(O)c1)C(=O)NCc1ccccc1` [AG490, reference compound], the “STAT3 phosphorylation on Tyr705” value in the assay on phospho-STAT3(Tyr705) (AG490 40 μM, data not shown) is “inhibit”. Also, the “UVB-induced CFB mRNA expression” value in the assay with CFB mRNA is “partly attenuated”. In the assay on JAK/STAT signaling, the JAK/STAT signaling result is reported as “inhibit” and the “retinal degeneration after bright light exposure” value is recorded as “prevent”.

On to `O=C(OC[C@H]1O[C@@H](OC(=O)c2cc(O)c(O)c(OC(=O)c3cc(O)c(O)c(O)c3)c2)[C@H](OC(=O)c2cc(O)c(O)c(OC(=O)c3cc(O)c(O)c(O)c3)c2)[C@@H](OC(=O)c2cc(O)c(O)c(OC(=O)c3cc(O)c(O)c(O)c3)c2)[C@@H]1OC(=O)c1cc(O)c(O)c(OC(=O)c2cc(O)c(O)c(O)c2)c1)c1cc(O)c(O)c(OC(=O)c2cc(O)c(O)c(O)c2)c1` [TA, Tannic acid], for which the “attenuation of UVB-induced IL-6 protein production” value with IL-6 is on record as “approximately 40%”. In addition, in the assay with phospho-STAT3(Tyr705) (TA 25 μM, UVB, 24 hours, ARPE-19 (RPE) cells), the “UVB-induced STAT3 phosphorylation on Tyr705” value is “substantially attenuated”. Moreover, the “STAT3 phosphorylation without UV radiation” value in the assay with phospho-STAT3(Tyr705) (without UV radiation) is “reduce”. Besides, the “UVB-induced CFB mRNA expression” value in the assay with CFB mRNA is “attenuate”. For the same compound, in the assay with CFB mRNA (without UV radiation), the “CFB expression without UV radiation” value is listed as “reduce”.
